pIC50: −log10 of the molar value.
Tests used:
HT1080 cells = experiment: Cellular assay for IDH1m inhibitors: inhibition of 2-HG production in HT1080 cells (LC-MS); assay type: cell-based; conditions: Homo sapiens, HT-1080, 48 hours
In short: (§1)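 HT1080 or U87MG cells seeded at 5000 cells/well overnight, then compound added (final DMSO 0.2%) and incubated 48 hours at 37 C. 2-HG in the medium quantified by LC-MS; viability checked by CellTiter-Glo luminescence at 72 hours post compound.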

U87R132H (U87MG) cells = experiment: Cellular assay for IDH1m inhibitors: inhibition of 2-HG production in U87MG (U87R132H) cells (LC-MS); assay type: cell-based; conditions: Homo sapiens, U-87 MG, 48 hours
In short: as §1

IDH1 R132H = IDH1 R132H (Homo sapiens (Human), UniProt O75874, R132H); experiment: Assays for IDH1 R132H Inhibitors (NADPH/aKG, resazurin detection); assay type: biochemical; conditions: IDH1 R132H enzyme, Table 3; read-out: R132H IC50
Sequence of IDH1 R132H (O75874 whole entry R132H): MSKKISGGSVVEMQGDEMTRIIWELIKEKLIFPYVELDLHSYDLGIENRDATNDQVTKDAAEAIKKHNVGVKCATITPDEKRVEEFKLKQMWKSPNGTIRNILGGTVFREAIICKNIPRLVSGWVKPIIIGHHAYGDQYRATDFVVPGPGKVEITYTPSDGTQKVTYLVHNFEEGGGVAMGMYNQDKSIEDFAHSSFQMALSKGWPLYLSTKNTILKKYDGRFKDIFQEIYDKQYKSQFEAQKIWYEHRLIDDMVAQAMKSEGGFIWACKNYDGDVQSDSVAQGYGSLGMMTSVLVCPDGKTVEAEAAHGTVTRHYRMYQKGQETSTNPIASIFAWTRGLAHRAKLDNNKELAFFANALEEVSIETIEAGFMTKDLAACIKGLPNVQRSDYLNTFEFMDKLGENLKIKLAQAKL
In short: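 Mutant enzyme in 150 mM NaCl, 10 mM MgCl2, 20 mM Tris pH 7.5, 0.03% BSA; compound in DMSO added to substrate mix of 8 uM NADPH and 2 mM aKG. Reaction ran 50 min at room temperature, then resazurin detection mix (30 μM) added for 5 min at room temperature.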

pIC50 (HT1080 cells)	pIC50 (U87R132H (U87MG) cells)	pIC50 (IDH1 R132H)	SMILES
5.00 to 6.00	5.00 to 6.00	> 6.30	[2H]C1([2H])CN(c2nc(C3CC3)c3c(c2C#N)CC(C)(C)OC3)C([2H])([2H])C([2H])(C([2H])(C([2H])([2H])[2H])C([2H])([2H])[2H])N1C(=O)CC(F)(F)F [Compound 476, (R)-8-cyclopropyl-3,3-dimethyl-6-(2,2,3,5,5-pentadeuterio-3-(1,1,1,3,3,3-hexadeuteriopropan-2-yl)-4-(3,3,3-trifluoropropanoyl)piperazin-1-yl)-3,4-dihydro-1H-pyrano[3,4-c]pyridine-5-carbonitrile]
5.00 to 6.00	5.00 to 6.00	> 6.30	[2H]C([2H])([2H])C([2H])(C([2H])([2H])[2H])[C@@]1([2H])N(C(=O)CC(F)(F)F)C([2H])([2H])C([2H])([2H])N(c2nc(C3CC3)c3c(c2C#N)CC(C)(C)OC3)C1([2H])[2H] [Compound 477, (R)-8-cyclopropyl-3,3-dimethyl-6-(2,2,3,5,5-pentadeuterio-3-(1,1,1,3,3,3-hexadeuteriopropan-2-yl)-4-(3,3,3-trifluoropropanoyl)piperazin-1-yl)-3,4-dihydro-1H-pyrano[3,4-c]pyridine-5-carbonitrile]
6.00 to 6.30	> 6.30	> 6.30	COCCC(=O)N1CCN(c2nc(C3CC3)c3c(c2C#N)CCN(S(C)(=O)=O)C3)C[C@H]1C1CC1 [Compound 479, (R)-1-cyclopropyl-3-(3-cyclopropyl-4-(3-methoxypropanoyl)piperazin-1-yl)-7-(methylsulfonyl)-5,6,7,8-tetrahydro-2,7-naphthyridine-4-carbonitrile]
5.00 to 6.00	6.00 to 6.30	> 6.30	CS(=O)(=O)N1CCc2c(C#N)c(N3CCN(C(=O)C4CC4)[C@H](C4CC4)C3)nc(C3CC3)c2C1 [Compound 481, (R)-3-(4-(cyclopropanecarbonyl)-3-cyclopropylpiperazin-1-yl)-1-cyclopropyl-7-(methylsulfonyl)-5,6,7,8-tetrahydro-2,7-naphthyridine-4-carbonitrile]
> 6.30	> 6.30	> 6.30	C=CC(=O)N1CCc2c(C3CC3)nc(N3CCN(C(=O)CCOC)[C@H](C4CC4)C3)c(C#N)c2C1 [Compound 483, (R)-6-acryloyl-1-cyclopropyl-3-(3-cyclopropyl-4-(3-methoxypropanoyl)piperazin-1-yl)-5,6,7,8-tetrahydro-2,6-naphthyridine-4-carbonitrile]
> 6.30	> 6.30	> 6.30	C=CC(=O)N1CCc2c(C#N)c(N3CCN(C(=O)CCOC)[C@H](C4CC4)C3)nc(C3CC3)c2C1 [Compound 485, (R)-7-acryloyl-1-cyclopropyl-3-(3-cyclopropyl-4-(3-methoxypropanoyl)piperazin-1-yl)-5,6,7,8-tetrahydro-2,7-naphthyridine-4-carbonitrile]
> 6.30	> 6.30	> 6.30	C#CC(=O)N1CCc2c(C3CC3)nc(N3CCN(C(=O)CCOC)[C@H](C4CC4)C3)c(C#N)c2C1 [Compound 486, (R)-1-cyclopropyl-3-(3-cyclopropyl-4-(3-methoxypropanoyl)piperazin-1-yl)-6-propioloyl-5,6,7,8-tetrahydro-2,6-naphthyridine-4-carbonitrile]
> 6.30	> 6.30	> 6.30	C=CS(=O)(=O)N1CCc2c(C#N)c(N3CCN(C(=O)C4CC4)[C@H](C4CC4)C3)nc(C3CC3)c2C1 [Compound 493, (R)-3-(4-(cyclopropanecarbonyl)-3-cyclopropylpiperazin-1-yl)-1-cyclopropyl-7-(vinylsulfonyl)-5,6,7,8-tetrahydro-2,7-naphthyridine-4-carbonitrile]
> 6.30	> 6.30	6.00 to 6.30	COC(=O)N1CCc2c(C#N)c(N3CCN(C(=O)C4CC4)[C@H](C4CC4)C3)nc(C3CC3)c2C1 [Compound 494, (R)-methyl 5-cyano-6-(4-(cyclopropanecarbonyl)-3-cyclopropylpiperazin-1-yl)-8-cyclopropyl-3,4-dihydro-2,7-naphthyridine-2(1H)-carboxylate]
> 6.30	> 6.30	> 6.30	C=CS(=O)(=O)N1CCc2c(C#N)c(-c3ccc(C(=O)OC)cc3F)nc(C3CC3)c2C1 [Compound 496]
> 6.30	> 6.30	> 6.30	C=CC(=O)N1CCc2c(C#N)c(N3CCN(C(=O)CCO)[C@H](C4CC4)C3)nc(C3CC3)c2C1 [Compound 498, (R)-7-acryloyl-1-cyclopropyl-3-(3-cyclopropyl-4-(3-hydroxypropanoyl)piperazin-1-yl)-5,6,7,8-tetrahydro-2,7-naphthyridine-4-carbonitrile]

From patent US9662327B2 (AGIOS PHARMACEUTICALS, INC, priority 2011, dated 2017)
